These results are taken from ChEMBL document CHEMBL4321844, “Rational Design and Optimization of a Novel Class of Macrocyclic Apoptosis Signal-Regulating Kinase 1 Inhibitors” (J Med Chem, 2019).

The structures appear in SMILES notation. Bounds are passed on as bounds.

This series is described as follows: Unbound brain to plasma concentration ratio, Kp of the compound in rat at 1 mg/kg, iv for 4 hrs by LC-MS/MS analysis. It counts as ADME, organism-based. The following applies: brain and plasma, read-out: K(p,uu,brain).

As to `CN(C)CCn1cc(-c2ccc3c(c2)C(=O)Nc2cccc(n2)-c2nncn2CCCCO3)cn1`, the Kp uu at 4 h amounted to 1. Consider `C[C@@H]1CCOc2cc(F)ccc2C(=O)Nc2cccc(n2)-c2nncn2C1`, for which the Kp uu at 4 h amounted to 0.17. With `C[C@H]1CCCOc2cc(F)ccc2C(=O)Nc2cccc(n2)-c2nncn21`, the Kp uu at 4 h worked out at 0.09.

Take `Cc1cn(-c2ccc3c(c2)C(=O)Nc2cccc(n2)-c2nncn2CCCCO3)cn1`: the Kp uu at 4 h was less than 0.1. Under `C[C@@H]1CCOc2cc(F)c(-c3cnn(CCN(C)C)c3)cc2C(=O)Nc2cccc(n2)-c2nncn2C1` stands less than 0.1.
